Measurements as given in the supplement of paper PMC4932681.

Legend:
BT-474 Tam1 [1] = assay: drug sensitivity score (DSS) (DSS (dimensionless)); higher = more sensitive; extreme values may be limits of the assay; conditions: 4-OH-tamoxifen in medium 1 µM; 72 h
In short: (§1)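 Breast cancer cell lines and their resistant derivatives were seeded into 384-well plates holding FO2Baq library drugs at five concentrations spanning a 10 000-fold range. Resistant lines were in medium with 1 μM of the selecting drug. Cells were incubated 72 h at 37 °C, and CellTiter-Glo viability was read on a PHERAstar and normalised to vehicle-only and positive controls. Drug sensitivity score, relative IC50 (curve midpoint) and top-dose inhibition came from logistic dose–response fits (Breeze pipeline).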

BT-474 Tam2 [2] = assay: as above; conditions: 4-OH-tamoxifen in medium 1 µM; 72 h
In short: as §1

BT-474 [3] = assay: as above; conditions: 72 h
In short: as §1

MCF-7 Tam1 [4] = assay: as above; conditions: 4-OH-tamoxifen in medium 1 µM; 72 h
In short: as §1

MCF-7 [5] = assay: as above; conditions: 72 h
In short: as §1

T-47D Tam1 [6] = assay: as above; conditions: 4-OH-tamoxifen in medium 1 µM; 72 h
In short: as §1

T-47D Tam2 [7] = assay: as above; conditions: 4-OH-tamoxifen in medium 1 µM; 72 h
In short: as §1

T-47D [8] = assay: as above; conditions: 72 h
In short: as §1

ZR-75-1 Tam1 [9] = assay: as above; conditions: 4-OH-tamoxifen in medium 1 µM; 72 h
In short: as §1

ZR-75-1 Tam2 [10] = assay: as above; conditions: 4-OH-tamoxifen in medium 1 µM; 72 h
In short: as §1

ZR-75-1 [11] = assay: as above; conditions: 72 h
In short: as §1

BT-474 Tam1 [12] = assay: relative IC50 (midpoint of fitted logistic curve, plateau may be below 50% inhibition; CellTiter-Glo viability); higher = less potent; conditions: 4-OH-tamoxifen in medium 1 µM; 72 h
In short: as §1

BT-474 Tam2 [13] = assay: as above; conditions: 4-OH-tamoxifen in medium 1 µM; 72 h
In short: as §1

BT-474 [14] = assay: as above; conditions: 72 h
In short: as §1

MCF-7 Tam1 [15] = assay: as above; conditions: 4-OH-tamoxifen in medium 1 µM; 72 h
In short: as §1

MCF-7 [16] = assay: as above; conditions: 72 h
In short: as §1

T-47D Tam1 [17] = assay: as above; conditions: 4-OH-tamoxifen in medium 1 µM; 72 h
In short: as §1

T-47D Tam2 [18] = assay: as above; conditions: 4-OH-tamoxifen in medium 1 µM; 72 h
In short: as §1

T-47D [19] = assay: as above; conditions: 72 h
In short: as §1

ZR-75-1 Tam1 [20] = assay: as above; conditions: 4-OH-tamoxifen in medium 1 µM; 72 h
In short: as §1

ZR-75-1 Tam2 [21] = assay: as above; conditions: 4-OH-tamoxifen in medium 1 µM; 72 h
In short: as §1

ZR-75-1 [22] = assay: as above; conditions: 72 h
In short: as §1

SMILES | relative IC50 (BT-474 Tam1 [12]) [nM] | relative IC50 (BT-474 Tam2 [13]) [nM] | relative IC50 (BT-474 [14]; 4-OH-tamoxifen in medium 0 µM) [nM] | relative IC50 (BT-474 [14]; 4-OH-tamoxifen in medium 1 µM) [nM] | relative IC50 (MCF-7 Tam1 [15]) [nM] | relative IC50 (MCF-7 [16]; 4-OH-tamoxifen in medium 1 µM) [nM] | relative IC50 (T-47D Tam1 [17]) [nM] | relative IC50 (T-47D Tam2 [18]) [nM] | relative IC50 (T-47D [19]; 4-OH-tamoxifen in medium 0 µM) [nM] | relative IC50 (T-47D [19]; 4-OH-tamoxifen in medium 1 µM) [nM] | relative IC50 (MCF-7 [16]; 4-OH-tamoxifen in medium 0 µM) [nM] | drug sensitivity score (BT-474 Tam1 [1]) | drug sensitivity score (BT-474 Tam2 [2]) | drug sensitivity score (BT-474 [3]; 4-OH-tamoxifen in medium 0 µM) | drug sensitivity score (BT-474 [3]; 4-OH-tamoxifen in medium 1 µM) | drug sensitivity score (MCF-7 Tam1 [4]) | drug sensitivity score (MCF-7 [5]; 4-OH-tamoxifen in medium 0 µM) | drug sensitivity score (MCF-7 [5]; 4-OH-tamoxifen in medium 1 µM) | drug sensitivity score (T-47D Tam1 [6]) | drug sensitivity score (T-47D Tam2 [7]) | drug sensitivity score (T-47D [8]; 4-OH-tamoxifen in medium 0 µM) | drug sensitivity score (T-47D [8]; 4-OH-tamoxifen in medium 1 µM) | drug sensitivity score (ZR-75-1 Tam1 [9]) | drug sensitivity score (ZR-75-1 Tam2 [10]) | drug sensitivity score (ZR-75-1 [11]; 4-OH-tamoxifen in medium 0 µM) | drug sensitivity score (ZR-75-1 [11]; 4-OH-tamoxifen in medium 1 µM) | relative IC50 (ZR-75-1 Tam1 [20]) [nM] | relative IC50 (ZR-75-1 Tam2 [21]) [nM] | relative IC50 (ZR-75-1 [22]; 4-OH-tamoxifen in medium 0 µM) [nM] | relative IC50 (ZR-75-1 [22]; 4-OH-tamoxifen in medium 1 µM) [nM]
CCNC(=O)CCC/C=C\C[C@@H]1[C@@H](/C=C/[C@@H](O)CCc2ccccc2)[C@H](O)C[C@@H]1O [Bimatoprost] | > 5500 | > 5500 | > 5500 | > 5500 | > 5500 | > 5500 | > 5500 | > 5500 | > 5500 | > 5500 |  | 0 | 0 | 0 | 0 | 0 | 0 | 0 | 0 | 0 | 0 | 0.0302 | 0 | 0 | 0 | 0 | > 5500 | > 5500 | > 5500 | > 5500
CC(C)C[C@H](NC(=O)[C@H](Cc1ccccc1)NC(=O)c1cnccn1)B(O)O [Bortezomib] | 3.55 | 5.98 | 12.7 | 3.72 | 39.9 | 44.5 | 2.79 | 5.5 | 6.27 | 8.31 | 6.82 | 29.5 | 26.7 | 13.2 | 29.1 | 11.3 | 19.9 | 14 | 30.4 | 26.5 | 25.6 | 23.7 | 13.9 | 16.4 | 9.65 | 10.7 | 20.1 | 8.96 | 73.1 | 31.4
Nc1cc(C(F)(F)F)c(-c2cc(N3CCOCC3)nc(N3CCOCC3)n2)cn1 [Buparlisib (BKM-120)] | 1350 | 1400 | 1730 | 870 | 1230 | 622 | 687 | 1090 | 931 | 1520 | 561 | 9.32 | 8.94 | 5.66 | 11.1 | 4.41 | 10.8 | 9.9 | 9.5 | 8.09 | 9.27 | 7.4 | 7.01 | 7.44 | 6.24 | 5.88 | 710 | 963 | 990 | 931
CC[C@@]1(O)C(=O)OCc2c1cc1n(c2=O)Cc2cc3ccccc3nc2-1 [Camptothecin] | > 5000 | > 5000 | > 5000 | > 5000 | 1350 | 649 | 32.6 | 302 | 44.2 |  | 32.6 | 0 | 0 | 0 | 0 | 3 | 23 | 8.74 | 15.6 | 4.93 | 15.6 | 3.21 | 12.4 | 13.3 | 13.9 | 7.82 | 49.7 | 59.8 | 38.4 | 95.6

The next lines start with results.

relative IC50 (BT-474 Tam1 [12]) [nM] | relative IC50 (BT-474 Tam2 [13]) [nM] | relative IC50 (BT-474 [14]; 4-OH-tamoxifen in medium 0 µM) [nM] | relative IC50 (BT-474 [14]; 4-OH-tamoxifen in medium 1 µM) [nM] | relative IC50 (MCF-7 Tam1 [15]) [nM] | relative IC50 (MCF-7 [16]; 4-OH-tamoxifen in medium 1 µM) [nM] | relative IC50 (T-47D Tam1 [17]) [nM] | relative IC50 (T-47D Tam2 [18]) [nM] | relative IC50 (T-47D [19]; 4-OH-tamoxifen in medium 0 µM) [nM] | relative IC50 (T-47D [19]; 4-OH-tamoxifen in medium 1 µM) [nM] | relative IC50 (MCF-7 [16]; 4-OH-tamoxifen in medium 0 µM) [nM] | SMILES | drug sensitivity score (BT-474 Tam1 [1]) | drug sensitivity score (BT-474 Tam2 [2]) | drug sensitivity score (BT-474 [3]; 4-OH-tamoxifen in medium 0 µM) | drug sensitivity score (BT-474 [3]; 4-OH-tamoxifen in medium 1 µM) | drug sensitivity score (MCF-7 Tam1 [4]) | drug sensitivity score (MCF-7 [5]; 4-OH-tamoxifen in medium 0 µM) | drug sensitivity score (MCF-7 [5]; 4-OH-tamoxifen in medium 1 µM) | drug sensitivity score (T-47D Tam1 [6]) | drug sensitivity score (T-47D Tam2 [7]) | drug sensitivity score (T-47D [8]; 4-OH-tamoxifen in medium 0 µM) | drug sensitivity score (T-47D [8]; 4-OH-tamoxifen in medium 1 µM) | drug sensitivity score (ZR-75-1 Tam1 [9]) | drug sensitivity score (ZR-75-1 Tam2 [10]) | drug sensitivity score (ZR-75-1 [11]; 4-OH-tamoxifen in medium 0 µM) | drug sensitivity score (ZR-75-1 [11]; 4-OH-tamoxifen in medium 1 µM) | relative IC50 (ZR-75-1 Tam1 [20]) [nM] | relative IC50 (ZR-75-1 Tam2 [21]) [nM] | relative IC50 (ZR-75-1 [22]; 4-OH-tamoxifen in medium 0 µM) [nM] | relative IC50 (ZR-75-1 [22]; 4-OH-tamoxifen in medium 1 µM) [nM]
> 100000 | > 100000 | > 100000 |  | > 100000 |  | > 100000 | > 100000 | > 100000 | > 100000 | > 100000 | CS(=O)(=O)OCCCCOS(C)(=O)=O [Busulfan] | 0 | 0 | 0 | 0 | 0 | 0 | 0.0038 | 0 | 0 | 0 | 0 | 0 | 0 | 0 | 0 | > 100000 | > 100000 | > 100000 | > 100000
680 | 1130 | 1190 | 137 | 3520 | 1540 | 656 | 1180 | 1190 | 803 | 1720 | C#Cc1cccc(Nc2ncnc3cc(OC)c(OCCCCCCC(=O)NO)cc23)c1 [CUDC-101] | 12.6 | 10.2 | 9.66 | 21.9 | 2.26 | 7.91 | 8.89 | 11.7 | 8.37 | 10.3 | 12.3 | 4.08 | 4.71 | 3.69 | 4.14 | 1150 | 1740 | 1600 | 1920
> 10000 | > 10000 | > 10000 | > 10000 | > 10000 | > 10000 | > 10000 | > 10000 | > 10000 | > 10000 | > 10000 | O=C(O)C1(C(=O)O)CCC1.[NH2-].[NH2-].[Pt+2] [Carboplatin] | 0 | 0 | 0 | 0 | 0 | 0 | 0 | 0 | 0 | 0 | 0 | 0 | 0 | 0 | 0 | > 10000 | > 10000 | > 10000 | > 10000
